Source: patent US9695149B2, “1,2,6-substituted benzimidazoles as flap modulators” (JANSSEN PHARMACEUTICA NV, priority 2013, dated 2017)
Where a name gives a salt, the structure may show the parent alone.

Legend:
[1] = test system: leukotriene pathway in human whole blood; assay: Human whole blood assay (LTB4, A23187-stimulated); type: cell-based; conditions: human whole blood diluted 1:1 in RPMI, calcium ionophore A23187 7 μg/mL, 30 min
Description: (§1) The ability of the compounds of the present invention to treat a FLAP-mediated disease and/or disorder, or associated symptoms or complications thereof, was determined using the following procedures. Binding assay data represent the average value obtained from two different assay plates, with samples run in duplicate on each plate. Human whole blood assay data represent a single replicate on an assay plate using whole blood from at least one healthy donor.
An in vitro cellular assay was performed using human whole blood collected in heparin-containing tubes, which was used to test the ability of compounds to modulate the leukotriene pathway in human whole blood. The blood was diluted 1:1 in RPMI medium, pre-incubated for 15 min at 37° Celsius with test compounds at various concentrations, and then stimulated with calcium ionophore, A23187 (7 μg/mL), for 30 min at 37° Celsius. The samples were then centrifuged and plasma was removed. The plasma was diluted in assay buffer and LTB4 levels were measured using a commercial kit (Enzo Life Sciences). The concentration of each compound that was required for half-maximal inhibition (modulation) of […] (IC50) was calculated by a 4-parameter equation using the program GraphPad Prism (GraphPad software). For analysis, data are imported into 3DX and aggregated as the average of duplicates of the calculated ratios in order to calculate Ki and IC50 values. Numbers in parentheses are the number of runs for the assay.

human FLAP = human FLAP (Homo sapiens (Human), UniProt P20292); assay: FLAP binding assay (HTRF format); conditions: human FLAP-containing Sf-9 membranes, wild type; average of runs
Sequence of human FLAP (P20292 whole entry): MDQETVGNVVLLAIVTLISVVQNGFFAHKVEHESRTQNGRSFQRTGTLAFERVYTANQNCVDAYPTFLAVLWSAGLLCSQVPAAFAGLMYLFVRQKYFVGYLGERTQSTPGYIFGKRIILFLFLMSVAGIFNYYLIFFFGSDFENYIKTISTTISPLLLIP
Description: as §1
The assay below is used to test the modulatory activity of compounds against FLAP. Human and mouse FLAP-encoding DNA was amplified by polymerase chain reaction and cloned into pFastBac1 (Invitrogen) with a NH2-terminal 6-His tag for expression in Spodoptera frugiperda (Sf-9) cells. FLAP-containing membranes were prepared as was a FITC-labeled FLAP modulator (3-(3-(tert-butylthio)-1-(4-chlorobenzyl)-5-(quinolin-2-ylmethoxy)-1H-indol-2-yl)-2,2-dimethylpropanoic acid). The FLAP binding assay is performed in HTRF format (homogeneous time resolved fluorescence). […] The reaction is allowed to proceed for two hours after which the plate is read on an Envision plate reader in HTRF mode. Data are expressed as a HTRF ratio.
For human FLAP binding assays, data are analyzed with 3DX Explorer software. […] For analysis, data from multiple runs are averaged and each compound may be tested in 2 to 20 runs. Each run comprises two plates and each plate includes duplicates. Data from each plate is averaged and data are imported into 3DX. The data from multiple runs are aggregated as the average of duplicates of the calculated ratios in order to calculate Ki and IC50 values. Numbers in parentheses are the number of runs for the assay.

IC50 [1] [nM] | Ki (human FLAP) [nM] | IC50 ([1]; Homo sapiens, 0.5 h) [nM] | Structure (SMILES)
320 | – | – | Cc1ccc(COc2ccc3nc(C4CCCC[C@H]4C(=O)O)n(Cc4cccc(N5CCCCC5)c4)c3c2)nc1 (mixture of isomers) [Example 223, racemic cis-2-{6-[(5-Methylpyridin-2-yl)methoxy]-1-(3-piperidin-1-ylbenzyl)-1H-benzimidazol-2-yl}cyclohexanecarboxylic acid]
– | ~870 | – | Cc1ccc(COc2ccc3nc(CC(C)(C)C(=O)O)n(Cc4cc(Br)ccc4F)c3c2)nc1 [Example 225, 3-{1-(5-Bromo-2-fluorobenzyl)-6-[(5-methylpyridin-2-yl)methoxy]-1H-benzimidazol-2-yl}-2,2-dimethylpropanoic acid]
– | ~750 | – | Cc1ccc(COc2ccc3nc(C4[C@H](C(=O)O)C4(C)C)n(Cc4cccc(C)c4)c3c2)nc1 (mixture of isomers) [Example 202, racemic cis-2,2-Dimethyl-3-{1-(3-methylbenzyl)-6-[(5-methylpyridin-2-yl)methoxy]-1H-benzimidazol-2-yl}cyclopropanecarboxylic acid]
– | 35 | 2260 | Cn1ccc(COc2ccc3nc(C4CCCC[C@H]4C(=O)O)n(Cc4cc(Br)ccc4F)c3c2)n1 (mixture of isomers) [Example 233, racemic cis-2-{1-(5-Bromo-2-fluorobenzyl)-6-[(1-methyl-H-pyrazol-3-yl)methoxy]-1H-benzimidazol-2-yl}cyclohexanecarboxylic acid]
– | ~180 | – | CCC(CC)(Cc1nc2ccc(OCc3ccn(C)n3)cc2n1Cc1ccc(N2CCC(F)(F)C2)cc1)C(=O)O [Example 216, 2-({1-[4-(3,3-Difluoropyrrolidin-1-yl)benzyl]-6-[(1-methyl-1H-pyrazol-3-yl)methoxy]-1H-benzimidazol-2-yl}methyl)-2-ethylbutanoic acid]
– | – | 4170 | Cc1ccc(COc2ccc3nc(C4CCCC[C@H]4C(=O)O)n(Cc4cc(Br)ccc4F)c3c2)nc1 (mixture of isomers) [Example 218, racemic trans-2-{1-(5-Bromo-2-fluorobenzyl)-6-[(5-methylpyridin-2-yl)methoxy]-1H-benzimidazol-2-yl}cyclohexanecarboxylic acid]
– | 120 | 5550 | Cc1cnc(COc2ccc3nc(CC(C)(C)C(=O)O)n(Cc4cc(Br)ccc4F)c3c2)c(F)c1 [Example 193, 3-{1-(5-Bromo-2-fluorobenzyl)-6-[(3-fluoro-5-methylpyridin-2-yl)methoxy]-1H-benzimidazol-2-yl}-2,2-dimethylpropanoic acid]
– | 21 | 1670 | Cn1ccc(COc2ccc3nc(C4CCCC[C@H]4C(=O)O)n(Cc4cccc(N5CC(F)(F)C5)c4)c3c2)n1 (mixture of isomers) [Example 205, racemic cis-2-{1-[3-(3,3-Difluoroazetidin-1-yl)benzyl]-6-[(1-methyl-1H-pyrazol-3-yl)methoxy]-1H-benzimidazol-2-yl}cyclohexanecarboxylic acid as the trifluoroacetic acid salt]
– | 0.95 | 110 | Cc1cnc(COc2ccc3nc(C4CCCC[C@H]4C(=O)O)n(Cc4ccc(N5CCC(C(F)(F)F)CC5)cc4F)c3c2)c(F)c1 (mixture of isomers) [Example 192, racemic cis-2-(6-[(3-Fluoro-5-methylpyridin-2-yl)methoxy]-1-{2-fluoro-4-[4-(trifluoromethyl)piperidin-1-yl]benzyl}-1H-benzimidazol-2-yl)cyclohexanecarboxylic acid]
– | 6.6 | 500 | Cc1ccc(COc2ccc3nc(C4CCCC[C@H]4C(=O)O)n(Cc4cccc(N5CCC(F)(F)CC5)c4)c3c2)nc1 (mixture of isomers) [Example 221, racemic cis-2-{1-[3-(4,4-Difluoropiperidin-1-yl)benzyl]-6-[(5-methylpyridin-2-yl)methoxy]-1H-benzimidazol-2-yl}cyclohexanecarboxylic acid]
– | ~2500 | – | CCC(CC)(Cc1nc2ccc(OCc3ccn(C)n3)cc2n1Cc1ccc(-c2cnc(OC)nc2)cc1F)C(=O)O [Example 214, 2-Ethyl-2-({1-[2-fluoro-4-(2-methoxypyrimidin-5-yl)benzyl]-6-[(1-methyl-1H-pyrazol-3-yl)methoxy]-1H-benzimidazol-2-yl}methyl)butanoic acid]
– | ~500 | – | CCC(CC)(Cc1nc2ccc(OCc3ccc(C)cn3)cc2n1Cc1cccc(-c2cnc(OC)nc2)c1)C(=O)O [Example 196, 2-Ethyl-2-({1-[3-(2-methoxypyrimidin-5-yl)benzyl]-6-[(5-methylpyridin-2-yl)methoxy]-1H-benzimidazol-2-yl}methyl)butanoic acid]
– | – | 4520 | Cc1ccc(COc2ccc3nc(C4[C@H](C(=O)O)C4(C)C)n(Cc4cc(Br)ccc4F)c3c2)nc1 (mixture of isomers) [Example 227, racemic cis-3-{1-(5-Bromo-2-fluorobenzyl)-6-[(5-methylpyridin-2-yl)methoxy]-1H-benzimidazol-2-yl}-2,2-dimethylcyclopropanecarboxylic acid]
– | ~1750 | – | Cc1ccc(COc2ccc3nc(C4[C@H](C(=O)O)C4(C)C)n(Cc4ccccc4C)c3c2)nc1 (mixture of isomers) [Example 210, racemic cis-2,2-Dimethyl-3-{1-(2-methylbenzyl)-6-[(5-methylpyridin-2-yl)methoxy]-1H-benzimidazol-2-yl}cyclopropanecarboxylic acid]
2170 | – | – | Cc1ccc(COc2ccc3nc(C4CCCC[C@H]4C(=O)O)n(Cc4cccc(N5CCCCC5)c4)c3c2)nc1 (mixture of isomers) [Example 224, racemic trans-2-{6-[(5-Methylpyridin-2-yl)methoxy]-1-(3-piperidin-1-ylbenzyl)-1H-benzimidazol-2-yl}cyclohexanecarboxylic acid]
– | – | 650 | Cc1ccc(COc2ccc3nc(C4CCCC[C@H]4C(=O)O)n(Cc4cccc(N5CCC(F)(F)C5)c4)c3c2)nc1 (mixture of isomers) [Example 220, racemic cis-2-{1-[3-(3,3-Difluoropyrrolidin-1-yl)benzyl]-6-[(5-methylpyridin-2-yl)methoxy]-1H-benzimidazol-2-yl}cyclohexanecarboxylic acid]
– | ~750 | – | Cc1ccc(COc2ccc3nc(CC(C)(C)C(=O)O)n(Cc4cccc(Br)c4)c3c2)nc1 [Example 232, 3-{1-(3-Bromobenzyl)-6-[(5-methylpyridin-2-yl)methoxy]-1H-benzimidazol-2-yl}-2,2-dimethylpropanoic acid as the trifluoroacetic acid salt]
– | > 10000 | – | CCC(CC)(Cc1nc2ccc(OCc3ccn(C)n3)cc2n1Cc1cc(Br)ccc1F)C(=O)O [Example 234, 2-({1-(5-Bromo-2-fluorobenzyl)-6-[(1-methyl-1H-pyrazol-3-yl)methoxy]-1H-benzimidazol-2-yl}methyl)-2-ethylbutanoic acid]
– | > 10000 | – | Cn1ccc(COc2ccc3nc(C4CCCC[C@H]4C(=O)O)n(Cc4cccc(Br)c4)c3c2)n1 (single isomer, unassigned) [Example 198, (1R*,2S*)-2-{1-(3-Bromobenzyl)-6-[(1-methyl-1H-pyrazol-3-yl)methoxy]-1H-benzimidazol-2-yl}cyclohexanecarboxylic acid]
– | 60 | – | Cc1ccc(COc2ccc3nc(C4CCCC[C@H]4C(=O)O)n(Cc4cccc(Br)c4)c3c2)nc1 (mixture of isomers) [Example 217, racemic trans-2-{1-(3-Bromobenzyl)-6-[(5-methylpyridin-2-yl)methoxy]-1H-benzimidazol-2-yl}cyclohexanecarboxylic acid]
– | ~940 | – | CCC(CC)(Cc1nc2ccc(OCc3ccn(C)n3)cc2n1Cc1cccc(-c2cnc(OC)nc2)c1)C(=O)O [Example 213, 2-Ethyl-2-({1-[3-(2-methoxypyrimidin-5-yl)benzyl]-6-[(1-methyl-1H-pyrazol-3-yl)methoxy]-1H-benzimidazol-2-yl}methyl)butanoic acid]
6640 | – | – | Cc1ccc(COc2ccc3nc([C@H]4CCCC[C@H]4C(=O)O)n(Cc4cc(Br)ccc4F)c3c2)nc1 (racemic) [Example 229, racemic-cis-2-{1-(5-Bromo-2-fluorobenzyl)-6-[(5-methylpyridin-2-yl)methoxy]-1H-benzimidazol-2-yl}cyclohexanecarboxylic acid]
– | ~2500 | – | Cn1ccc(COc2ccc3nc(C4CCCC[C@H]4C(=O)O)n(Cc4cccc(C#N)c4)c3c2)n1 (mixture of isomers) [Example 199, racemic cis-2-{1-(3-Cyanobenzyl)-6-[(1-methyl-1H-pyrazol-3-yl)methoxy]-1H-benzimidazol-2-yl}cyclohexanecarboxylic acid]
